{"source": "patent US6479493B1", "about": "“Methods for treatment of type I diabetes” (Cell Pathways, Inc., priority 2001, dated 2002)", "key": {"[1]": {"target": "T1, cGMP binding sites of the GST-cGB-PDE5 fusion protein (Homo sapiens, UniProt O76074)", "T1 construct": "made in house; host or cells: E. coli BL21 (DE3)", "assay": "cGMP binding assay with GST-cGB-PDE5 fusion protein", "conditions": "3H-cGMP 2 μM, 22° C., 1 hour", "text": "RT-PCR method is used to obtain the cGB domain of PDE5 with forward and reverse primers designed from bovine PDE5A cDNA sequence (McAllister-Lucas L. M. et al, J. Biol. Chem. 268, 22863-22873, 1993) and the selection among PDE 1-10 families. 5′-3′, Inc. kits for total RNA followed by oligo (dT) column purification of mRNA are used with HT-29 cells. […] It is then cloned into pGEX-5X-3 glutathione-S-ransferase (GST) fusion vector (Pharmacia Biotech )with tac promoter, and EcoRI and XhoI cut sites. The fusion vector is then transfected into E. Coli BL21 (DE3) bacteria (Invitrogen). The transfected BL21 bacteria is grown to log phase, and then IPTG is added as an inducer. The induction is carried at 20° C. for 24 hrs. The bacteria are harvested and lysed. The soluble cell lysate is incubated with GSH conjugated Sepharose 4B (GSH-Sepharose 4B). The GST-cGB-pDE5 fusion protein can bind to the GSH-Sepharose beads, and the other proteins are washed off from beads with excessive cold PBS.\nThen, the mixture is transferred to Brandel MB-24 cell harvester with GF/B as the filter membrane followed by 2 washes with 10 mL of cold 5 mM potassium buffer(pH 6.8). The membranes are then cut out and transferred to scintillation vials followed by the addition of 1 mL of H2O and 6 mL of Ready Safe™ liquid scintillation cocktail to each vial. The vials are counted on a Beckman LS 6500 scintillation counter.\nThe quenching by filter membrane or other debris are also calibrated."}, "[2]": {"target": "PDE 5 (Homo sapiens, UniProt O76074)", "assay": "competitive binding (with cGMP) to PDE5"}, "[3]": {"tested_on": "PDE4", "assay": "PDE inhibition, similar protocols", "format": "biochemical"}, "[4]": {"tested_on": "rats", "assay": "acute toxicity study in rats", "conditions": "rat, in vivo"}, "[5]": {"tested_on": "dogs", "assay": "acute / seven-dose toxicity in dogs", "conditions": "dog, in vivo", "quoted_text": "Therefore, these dogs were subsequently administered seven consecutive doses of 1000 mg/kg/day."}, "[6]": {"tested_on": "rats", "assay": "91-day long-term safety assessment study in rats", "format": "in vivo, rat", "text": "These changes were not associated with any gross clinical abnormality."}, "[7]": {"tested_on": "human patients", "assay": "single, escalating dose human clinical safety trial", "format": "in vivo", "conditions": "humans, oral, 50, 100, 200 and 400 mg BID", "text": "One skilled in the art should recognize that any of the side effects observed in these safety studies occurred at very high doses, in excess of recommended human doses and are extremely minimal compared to what one would expect at similar doses of other proposed therapies."}, "[8]": {"tested_on": "U937 cells", "assay": "apoptosis induction of U937 cells, active caspase 3 indirect immunofluorescence", "format": "cell-based", "conditions": "1 μM, 24 hours", "description": "U937 cells (from ATCC Rockville, Md.) were grown in RPMI media supplemented with 5% FCS, glutamine, antibiotic/antimycotic and sodium pyruvate. Total RNA was isolated from two U937 cultures, one treated with 5 nM TPA for 48 hours and one grown in normal media as listed above, using the Rouche High Pure RNA Isolation Kit (cat #1 828 665) as per manufacturers protocol. cDNA was then synthesized from the total RNA using GibcoBRL SuperscriptII (Cat #18064-022) reverse transcriptase as per manufacturers protocol. The resulting cDNA was used as a template for RT-PCR reactions using primer sets specific for PDE2 (forward: […], reverse: […]) or PDE5 (forward: […], reverse: […]). mRNA for PDE2 and 5 were both present in the untreated U937 cells. Upon treatment with TPA, the relative amounts of PDE2 mRNA increased 5 fold. Therefore, U937 cells treated with TPA and driven to differentiate into an activated macrophage like state have elevated levels of PDE2 mRNA (see FIG. 1).\nThe presence of PDE2 and PDE5 protein within U937 cells was confirmed by indirect immunofluorescence (IIF). U937 cells were cultured as above. Two U937 cultures, one grown in the presence of 5 nM TPA for 48 hours and one grown in normal media were processed. All cultures were collected by centrifugation (Shandon Cytospin, 2 minutes @600 rpm) onto poly-L lysine-coated slides and immediately fixed in fresh 3% paraformaldehyde buffered in PBS for 10 minutes. Adherent cultures were grown on coverslips and fixed as above. Cells were permeablized in 0.2% Triton-100 for 2 minutes. Slides were blocked with blocking buffer (5% goat serum, 5% glycerol, 1% gelatin from cold water fish skin and 0.04% NaN3 in PBS) for 1 hour at room temperature.\nSlides were then incubated for 1 hour at 37° C. in a humid chamber with antibodies specific for PDE2 (generated in a sheep against the peptide […]) or PDE5 (generated in sheep against the peptide […]). […]\nThe level of apoptosis in U937 cells was quantified by scoring 500 consecutive cells for the presence of active caspase 3. […]"}}, "note": "Counter-ions that a name gives are not always drawn.", "data": [{"smiles": "CC1=C(CC(=O)NCc2ccccc2)c2cc(F)ccc2/C1=C\\c1ccncc1", "note": "[Example 38, (Z)-5-Fluoro-2-methyl-(4-pyridylidene)-3-(N-benzyl)indenylacetamide Hydrochloride]", "values": [{"measurement": "competition with cGMP in binding to the cGMP binding sites of GST-cGB-PDE5", "setting": "[1]", "result": "does not bind to the cGMP-binding site of PDE5"}, {"measurement": "competitive (with cGMP) binding to PDE 5", "setting": "[2]", "result": "does competitively (with cGMP) bind to PDE 5"}, {"measurement": "IC50", "setting": "[3]", "result": 6, "unit": "µM"}, {"measurement": "body weight gain", "setting": "[4]; ip, 1000 mg/kg", "result": "reduced body weight gain"}, {"measurement": "necropsy findings", "setting": "[4]; ip, 1000 mg/kg", "result": "mesenteric adhesions seen in some animals"}, {"measurement": "body weight gains", "setting": "[4]; po, 2000 mg/kg", "result": "slightly reduced"}, {"measurement": "signs of toxicity", "setting": "[5]; 1000 mg/kg", "result": "no signs of toxicity"}, {"measurement": "signs of drug-related effects", "setting": "[5]; 1000 mg/kg/day", "result": "At no time in either dosing phase were any obvious signs of drug-related effects observed"}, {"measurement": "clinical biochemistry and hematology", "setting": "[6]; 91 days", "result": "no changes in clinical biochemistry and hematology were evident"}, {"measurement": "microscopic finding, follicular cells", "setting": "[6]; 91 days, 500 mg/kg/day", "result": "follicular cell hypertrophy"}, {"measurement": "microscopic finding, kidneys", "setting": "[6]; 91 days, 200 and 500 mg/kg/day", "result": "increase in accumulation of hyalin droplets in the kidneys"}, {"measurement": "microscopic finding, liver", "setting": "[6]; 91 days, 200 and 500 mg/kg/day", "result": "slight hepatocellular hypertrophy"}, {"measurement": "liver and thyroid/parathyroid weights", "setting": "[6]; 91 days, males and females at 200 and 500 mg/kg/day", "result": "dose-related trend to increased liver and thyroid/parathyroid weights"}, {"measurement": "toxicological effects overall", "setting": "[6]; oral, 91 days, 50, 200 and 500 mg/kg/day", "result": "did not produce any major toxicological effects"}, {"measurement": "side effects", "setting": "[7]", "result": "no significant side effects at any dose"}, {"measurement": "apoptosis by active caspase 3 image (FIG. 8)", "setting": "[8]", "result": "undergoing apoptosis as reflected by the presence of active caspase 3"}]}]}
